Columns and labels:
Format in all cases: functional, organism-based
Influenza A virus [1] = assay: Antiviral activity against influenza A virus A/WSN/1933 (H1N1) infected in MDCK cells harbouring TamiFlu sensitive neuraminidase 274Y mutant assessed as reduction in cytopathic effect by DAPI staining based analysis
Influenza A virus [2] = assay: Antiviral activity against influenza A virus A/WSN/1933 (H1N1) harboring Tamiflu- sensitive neuraminidase (274H) infected in MDCK cells assessed as reduction in cytopathic effect by fluorescence based analysis
Influenza A virus [3] = assay: Antiviral activity against influenza A virus A/WSN/1933 (H1N1) harboring Tamiflu- sensitive neuraminidase (274Y) infected in MDCK cells assessed as reduction in cytopathic effect by fluorescence based analysis
Influenza A virus [4] = assay: Antiviral activity against influenza A virus A/WSN/1933 (H1N1) infected in MDCK cells harbouring TamiFlu sensitive neuraminidase 274H mutant assessed as reduction in cytopathic effect by DAPI staining based analysis
Influenza A virus [5] = assay: Antiviral activity against Oseltamivir-resistant Influenza A virus (H1N1) pdm09

Row | Compound | EC50 (Influenza A virus [1]) [nM] | IC50 (Influenza A virus [2]) [nM] | EC50 (Influenza A virus [3]) [nM] | EC50 (Influenza A virus [4]) [nM] | EC50 (Influenza A virus [5]) [nM]
1 | Cc1onc(-c2ccccc2Cl)c1C(=O)N1CCN(c2ccc([N+](=O)[O-])cc2Cl)CC1 | 140 | 70 | 140 | 140 | 
2 | COc1cccc(OC)c1C(=O)/C=C/c1nc(C)c(C)nc1C |  |  |  |  | 1040
